Measurements reported in patent US8784804B2, “Nutraceutical composition that comprises extract of andean shilajit, for preventing and/or treating neurodegenerative diseases and/or the cognitive deterioration associated with cerebral aging” (Centro Internacional de Biomedicina (ICC), priority 2009, dated 2014).

System: neuroblastoma cells (N-115 cell line)
Test: Shilajit's toxicity in nerve cell culture (MTT assay, calcein-AM)
Format: cell-based
Conditions: 10 mM H2O2, positive control of neuronal death
Protocol: The toxicity of the composition's main component was determined, whose toxicity in nerve cells was unknown up to now. This study consisted in the application of concentrations ranging from 10 to 50 mg/mL to a culture of neuroblastoma cells (N-115 cell line) (MTT assay) and subsequent observation of neuronal death through fluorescent microscopy using the calcein-AM method that determines the morphologic integrity.

OO [H2O2]
% neuronal death: 100.0%
A550: 0.050
